Experimental data from patent US20070293559A1, “Orally Administered Agent For Preventing Or Improving Dry Station Of Skin” (priority 2004, published 2007).

Key:
HOS:HR-1 mice [1] = assay: Water content of the skin surface (SKICON-200) after oral ingestion in feed; format: in vivo; details: CE-2 feed containing 0.5% or 1% by weight of hydroxyproline, two to five weeks of feeding, relative to CE-2 group
Experimental: HOS:HR-1 mice (male, 5 weeks old, purchased from SLC Japan) were used in the test. The breeding conditions were that the room temperature was 22±2° C., the humidity was 35±15% and a feed and water were freely ingested.
Each test group consisted of 10 mice. A commercially available powder feed CE-2 (manufactured by Clea Japan) was fed to mice of the first group, CE-2 containing 0.5% by weight of trans-4-hydroxy-L-proline (hereinafter also referred to simply as hydroxyproline; manufactured by Kyowa Hakko Kogyo Co., Ltd.) was fed to mice of the second group, and CE-2 containing 1% by weight of hydroxyproline was fed to mice of the third group.
The water content of the skin surface on the back thigh upper portion of each mouse was measured with SKICON-200 (manufactured by IBS) every one week, from two weeks to five weeks after the start-up of the feeding of each feed. The measurement was conducted ten times for each mouse, and an average value of each mouse was obtained. Further, an average value of each test group was calculated.
The relative epidermal water content was calculated according to the following formula using the average value. Relative epidermal water content (%)=(A2/A1)×100 • A1: Epidermal water content of the first group • A2: Epidermal water content of the second or third group

HOS:HR-1 mice [2] = assay: Transepidermal water loss (TEWL) in mice with dry skin induced by special feed; format: in vivo; details: for TEWL value: right rump, group average
Experimental: HOS:HR-1 mice (female, 4 weeks old, purchased from SLC Japan) were used in the test. The breeding conditions were that the room temperature was 22±2° C., the humidity was 50±5% and a feed and water were freely ingested.
Each test group consisted of 10 mice. A commercially available powder feed CE-2 was fed to mice of the first group, a special feed (manufactured by Nippon Nosan Kogyo K.K.) was fed to mice of the second group, the special feed containing 0.5% by weight of hydroxyproline was fed to mice of the third group, and the special feed containing 1% by weight of hydroxyproline was fed to mice of the fourth group. The dry skin was induced in HOS:HR-1 mice by feeding of the special feed (The journal of international medical research pharmacology, 32, 392-399 (2004)).
A transepidermal water loss (TEWL) value of the right rump of each mouse was measured as an index of a barrier function of stratum corneum at the start-up of the feeding of each feed, after four weeks and after six weeks using Tewameter TM210 (Courage+Khazaka electronic GmbH, Germany), and an average value of each group was calculated.

In the case of O=C(O)[C@@H]1C[C@@H](O)CN1 [hydroxyproline, trans-4-hydroxy-L-proline], the “water content of the skin (relative epidermal water content, FIG. 1)” value (HOS:HR-1 mice [1]) is reported as “markedly improved”, the “transepidermal water loss, t-test in comparison with the second group” value (HOS:HR-1 mice [2]; fourth group (1% hydroxyproline in special feed), risk rate of less than 5% defined as significant) is reported as “significant difference” and the TEWL value (HOS:HR-1 mice [2]; fourth group: special feed containing 1% by weight of hydroxyproline, feeding period 0 week (start-up)) is reported as 5.07 g/m^2/hour. The TEWL value (HOS:HR-1 mice [2]; fourth group: special feed containing 1% by weight of hydroxyproline, feeding period 4 weeks) was 25.07 g/m^2/hour, the TEWL value (HOS:HR-1 mice [2]; fourth group: special feed containing 1% by weight of hydroxyproline, feeding period 6 weeks) was 25.40 g/m^2/hour and the “barrier function of stratum corneum” value (HOS:HR-1 mice [2]; oral ingestion of hydroxyproline) was “effect of improving the barrier function of stratum corneum”. For the same compound, the “increase in transepidermal water loss” value (HOS:HR-1 mice [2]; third and fourth groups (0.5% and 1% hydroxyproline in special feed) versus second group (special feed)) was “suppressed dependently on the concentration”, the TEWL value (HOS:HR-1 mice [2]; third group: special feed containing 0.5% by weight of hydroxyproline, feeding period 0 week (start-up)) was 4.99 g/m^2/hour and the TEWL value (HOS:HR-1 mice [2]; third group: special feed containing 0.5% by weight of hydroxyproline, feeding period 4 weeks) was 29.80 g/m^2/hour. The TEWL value (HOS:HR-1 mice [2]; third group: special feed containing 0.5% by weight of hydroxyproline, feeding period 6 weeks) was 29.04 g/m^2/hour.
